The target in this assay is T1, nAChRs (nicotinic acetylcholine receptors) in G. pulex membrane protein extract.
T1 construct: gene nAChR alpha; native whole-animal crude membrane protein pellet (43,000g)
Briefly: equilibrium binding to membrane protein, unlabelled ligand, ultracentrifugation, online-SPE LC-HRMS/MS. On the set-up: species or system Gammarus pulex. Particulars: 10 mM Tris-HCl pH 7.4, 23 °C, 2 h; one-site specific binding model; no displacement control described; read-out: best fit. The text has this:
equilibrium binding to membrane protein, unlabelled ligand, ultracentrifugation, online-SPE LC-HRMS/MS on nAChRs (nicotinic acetylcholine receptors) in G. pulex membrane protein extract

Each structure is given as a SMILES string.

In the case of `N#C/N=C1\SCCN1Cc1ccc(Cl)nc1` [thiacloprid], the Kd was determined as 410 pM.

These data come from paper PMC10286312, “Elimination Resistance: Characterizing Multi-compartment Toxicokinetics of the Neonicotinoid Thiacloprid in the Amphipod Gammarus pulex Using Bioconcentration and Receptor-Binding Assays” (Environmental Science & Technology, 2023).
